Data from PubChem BioAssay (NCI).
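96-well plates; 48 h exposure; 5 concentrations. Endpoints by linear interpolation between flanking doses. Not reached: highest tested concentration assigned. At the TGI there is no net growth.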

Key:
Assay in all cases: inhibition of tumour cell growth, NCI panel, 48 h
[1] = tested on: KM20L2 colon
[2] = tested on: SK-OV-3 ovarian
[3] = tested on: DLD-1 colon
[4] = tested on: KM12 colon
[5] = tested on: SK-MEL-5 melanoma
[6] = tested on: SF-295 CNS
[7] = tested on: UACC-62 melanoma
[8] = tested on: ACHN renal
[9] = tested on: SK-MEL-28 melanoma
[10] = tested on: A498 renal
[11] = tested on: RPMI-8226 leukemia
[12] = tested on: HOP-18 NSCLC
[13] = tested on: HCT-15 colon
[14] = tested on: HOP-62 NSCLC
[15] = tested on: HT29 colon
[16] = tested on: K-562 leukemia
[17] = tested on: HCC-2998 colon
[18] = tested on: RXF-631 renal
[19] = tested on: M19-MEL melanoma
[20] = tested on: SF-539 CNS
[21] = tested on: MOLT-4 leukemia
[22] = tested on: OVCAR-8 ovarian
[23] = tested on: NCI-H460 lung
[24] = tested on: UO-31 renal
[25] = tested on: NCI-H522 lung
[26] = tested on: XF 498 CNS
[27] = tested on: IGROV1 ovarian
[28] = tested on: 786-0 renal
[29] = tested on: OVCAR-4 ovarian
[30] = tested on: SF-268 CNS
[31] = tested on: NCI-H226 lung
[32] = tested on: LOX IMVI melanoma
[33] = tested on: UACC-257 melanoma
[34] = tested on: CCRF-CEM leukemia
[35] = tested on: SW-620 colon
[36] = tested on: LXFL 529 NSCLC
[37] = tested on: CAKI-1 renal
[38] = tested on: SNB-75 CNS
[39] = tested on: HL-60(TB) leukemia
[40] = tested on: SNB-78 CNS
[41] = tested on: A549 NSCLC
[42] = tested on: SN12C renal
[43] = tested on: HCT-116 colon
[44] = tested on: MALME-3M melanoma
[45] = tested on: OVCAR-3 ovarian
[46] = tested on: DMS 114 small cell lung
[47] = tested on: NCI-H23 lung
[48] = tested on: DMS 273 small cell lung
[49] = tested on: HOP-92 NSCLC
[50] = tested on: OVCAR-5 ovarian
[51] = tested on: SNB-19 CNS
[52] = tested on: COLO 205 colon
[53] = tested on: U251 CNS
[54] = tested on: SK-MEL-2 melanoma
[55] = tested on: EKVX NSCLC
[56] = tested on: TK-10 renal
[57] = tested on: RXF 393 renal

Measured: TGI

CN(C)c1[se]nc2c1c(=O)n(C)c(=O)n2C
> 100 µM: [1] | [2] | [3] | [4] | [5] | [6] | [7] | [8] | [9] | [10] | [11] | [12] | [13] | [14] | [15] | [16] | [17] | [18] | [19] | [20] | [21] | [22] | [23] | [24] | [25] | [26] | [27] | [28] | [29] | [30] | [31] | [32] | [33] | [34] | [35] | [36] | [37] | [38] | [39] | [40] | [41] | [42] | [43] | [44] | [45] | [46] | [47] | [48] | [49] | [50] | [51] | [52] | [53] | [54] | [55] | [56]

COc1ccc2c(c1)C1C(CO2)C(c2ccccc2)=NN1c1ccccc1 (stereo unspecified)
9.67 µM: [38]
> 100 µM: [1] | [2] | [3] | [4] | [5] | [6] | [8] | [9] | [10] | [11] | [12] | [14] | [15] | [16] | [17] | [18] | [19] | [20] | [21] | [22] | [23] | [24] | [25] | [26] | [27] | [28] | [30] | [32] | [33] | [34] | [35] | [36] | [57] | [39] | [40] | [41] | [43] | [44] | [45] | [46] | [47] | [48] | [49] | [50] | [52] | [53] | [54] | [55] | [56]
